Columns and labels:
[1] = tested on: human breast cancer cell line (MCF-7); conditions: MCF-7, Non-patent literature 1; cited from earlier work
[2] = tested on: mouse model of memory impairment; test: Y-shaped maze test in scopolamine mouse model of memory impairment; format: in vivo; conditions: ICR mice, scopolamine 3 mg/kg i.p., Y-shaped maze on day 7
Method: The memory-improving effect of araliadiol was confirmed by administering (orally by sonde) a composition containing arariadiol (a compound shown in Formula I) to a mouse model of memory impairment.
Experimental methods are described below. The following groups of ICR mice (male, 7 weeks old/purchased from SLC Japan) were established. The mice in each group, except for the untreated group, were treated with the composition orally administered by sonde and scopolamine administered intraperitoneally (i.p.). The composition contains a predetermined amount of araliadiol in distilled water. Scopolamine was administered at a dose of 3 mg per kg of mice to cause memory impairment in mice. […] For groups other than the untreated group, distilled water or the composition was administered daily from day 0 to day 6 (seven doses of the composition), with day 0 being the first day of administration of distilled water or the composition. On the 7th day, all groups of mice were tested in a Y-shaped maze test. Scopolamine was administered to all groups of mice except the untreated group 30 minutes before the start of the Y-shaped maze test. • Untreated group: 15 ICR mice that were treated with distilled water containing no araliadiol, but not with scopolamine. • Control group: 16 ICR mice were treated with distilled water containing no araliadiol and scopolamine. • Araliadiol 1 mg/kg group: 16 ICR mice were treated with a composition containing araliadiol (1 mg of araliadiol per 1 kg of mouse body weight per day: 1 mg/kg/day) and scopolamine. • Araliadiol […]: A group of 16 ICR mice that received a composition containing araliadiol (10 mg of araliadiol per kg of mouse body weight per day: 10 mg/kg/day) and a dose of SCOPE.
The Y-shaped maze device shown in FIG. 11 (made of gray acrylic: 40 cm long×10 cm wide×12 cm high) was used to conduct the Y-shaped maze test. In the Y-shaped maze test, mice were allowed to explore in the device, and the spontaneous alternations observed during the exploratory behavior were evaluated as short-term memory. The mice were placed at the tip of one of the three arms of the Y-shaped maze, allowed to explore freely in the maze for 8 minutes, and the arms they entered were recorded in order. The number of times for the mouse to enter each arm (total number of arm entries) and the number of combinations of consecutive entries into three different arms (number of alternation behaviors) were examined during the measurement period (8 minutes). The alternation behavior (%) was calculated from the following formula and used as an index of short-term memory.
Alternating behavior (%)=number of alternating actions/(total number of arm entries−2)×100

Structure (SMILES): C=C[C@H](O)C#CC#C[C@H](O)/C=C\CCCCC [Araliadiol, 3(S),8(R)-pentadeca-1,9(Z)-diene-4,6-diyne-3,8-diol]
- cell cycle [1]: arrest the cell cycle
- proliferation [1]: inhibit the proliferation
- Alternating behavior (%) ([2]; 1 mg/kg/day oral for 7 days): 50.87%
- Alternating behavior (%) ([2]; 1 mg/kg/day oral for 7 days, listed as araliadiol): increase in the rate of alternation behavior
- Alternating behavior (%) ([2]; 10 mg/kg/day oral for 7 days): 53.18(*) %
- Alternating behavior (%) ([2]; 10 mg/kg/day oral for 7 days, listed as araliadiol): improvement in the rate of alternating behavior
